| Structure (SMILES) | melting point |
| --- | --- |
| CCc1c(-c2ccc(O)cc2)c2cc(COCCCN3CCCCC3)c3cccc1n32 | 176 to 178 °C |
| O=[N+]([O-])c1cc(CO)c(Cl)cc1F | 39 to 41 °C |
| O=S(=O)(c1ccccc1)C1C2CCC(C2)C1Br (centres undefined) | 108 to 110 °C |
| Cc1cccc2c1C(=O)N1CCC[C@H]1c1c(C(=O)OC(C)(C)C)ncn1-2 | 192 to 194 °C |
| O=C1NC(=O)C2(C(=O)N(Cc3ccc(Cl)c(Cl)c3)c3ccccc32)N1C(=O)c1ccccc1 (centres undefined) | 251 to 253 °C |
| N#Cc1c(N2CC[C@@H](C3(N)CC3)C2)ccc2c(=O)c(C(=O)O)cn([C@@H]3C[C@@H]3F)c12 | 138 to 140 °C |
| O=C(Oc1ccc(C(=O)c2ccc(Cl)cc2)cc1)Oc1ccc(C(=O)c2ccc(Cl)cc2)cc1 | 235 to 237 °C |
| Cc1ccc(C(=O)NC(NC(=S)Nc2ccc(F)cc2)C(F)(F)F)cc1 (centres undefined) | 208 to 210 °C |
| N#Cc1ccccc1-c1c(O)ccc2c3c(oc12)-c1cc(O)ccc1CC3 | 277 to 279 °C |
| CCCOc1ccc(-c2c(Cl)ncn2-c2ccc(S(C)(=O)=O)cc2)cc1 | 161 to 163 °C |
| COc1cc(C(=O)O)ccc1-c1nc2cc(Cl)c(Cl)cc2[nH]1 | > 250 °C |
| COc1ccc(-c2cc(O)nc(Nc3ccc(OC)c(Cl)c3)n2)cc1 | 292 to 294 °C |
| Cn1c(Nc2c(Cl)cccc2Cl)nc2cc(C(=O)NC3CCC(C)(C)CC3)ccc21 | 189 to 190 °C |
| CCCc1cc(C=Cc2ccc3ccccc3n2)cc(OCC(=O)O)c1 | 97 to 98 °C |
| O=C(Nc1n[nH]c(=S)s1)NC(Cc1ccccc1)C(=O)NCCN1CCOCC1 (centres undefined) | 165 to 167 °C |
| CCOC(=O)C1(CC(=O)O)C(=O)C=C(OCc2ccccc2)CC1c1ccc(C)cc1 (centres undefined) | 217 °C |
| Cc1oc(-c2ccco2)nc1COc1ccc(COc2nn(Cc3ccccc3)cc2C(N)=O)cc1 | 139 to 140 °C |
| C[C@H](CO)Nc1nc(SCc2ccccc2)nc2[nH]c(=O)[nH]c12 | 284 °C |
| CC(C)(C)Oc1nc2cc(F)c([N+](=O)[O-])cc2[nH]c1=NC#N | 161 to 164 °C |
| O=Cc1ccc(OCc2ccccc2)c([N+](=O)[O-])c1 | 100 to 102 °C |
| NS(=O)(=O)c1ccc(NN=C2C(=O)Nc3ccc(C(=O)NCc4cccnc4)cc32)cc1 | 211 to 215 °C |
| CCCc1nc2c(N)nc3ccccc3c2n1CC(C)(C)CC1(C)OCCO1 | 186 to 188 °C |
| O=C(O)c1ccc(-c2c([N+](=O)[O-])oc3c2ccc2ccccc23)cc1 | > 300 °C |
| Cc1c(NC(=O)c2ccc(CC(=O)C3CC3)cc2)ccc2cc(CN3CCCC3)cnc12 | 200 to 201 °C |
| CC(C)(C)OC(=O)NNC(=O)c1ccc(O)c(O)c1 | 148 °C |

| Structure (SMILES) | melting point |
| --- | --- |
| CCOC(=O)CCc1cc2c(Nc3ccc4[nH]ccc4c3)c(C#N)cnc2s1 | 202 °C |
| CN(C)c1c(-c2ccccc2)sc2ccc(Cl)cc12 | 79 to 81 °C |
| O=C(NC1CCN(CCc2cccc(F)c2)C1)C12CC3CC(CC(C3)C1)C2 (centres undefined) | 87 to 89 °C |
| COC(=O)CCCOc1cc(C(=O)O)ccc1NC(=O)NC(=O)c1cc(F)c(F)cc1Cl | 227 °C |
| Cc1oc(-c2ccccc2)nc1COc1ccccc1COc1cccc(CC(=O)O)c1 | 104 to 105 °C |
| N#Cc1cncc(-c2ccc(OC[C@@H](N)Cc3ccccc3)cc2)c1Nc1cccc2[nH]ccc12 | 83 to 85 °C |
| CS(=O)(=O)Nc1cccc(CC2c3ccccc3CCc3ccccc32)c1 | 149 °C |
| COC(OC)c1cccc(NCc2ccccc2)c1 | 55 to 56 °C |
| O=c1[nH]ncc2c(OCC3CO3)cccc12 (centres undefined) | 173 to 174 °C |
| COc1cc(C(=O)O)ccc1OCCCO | 162 °C |
| Cc1c(C(=O)Nc2ccc(N3CCC(=O)CC3)c(C#N)c2)cnn1-c1ccc(Cl)cc1 | 238 °C |
| OCc1c(Br)c(Br)c(CO)c(Br)c1Br | 248 °C |
| C=CCc1c(C)cc(C)c(C(C)O)c1-c1ccc(F)cc1 (centres undefined) | 92 °C |
| CN1CCC(=C2c3ccc(Cl)cc3CCn3ccnc32)CC1 | 187 °C |
| COc1ccc(-c2ocnc2-c2cc(OC)c(O)c(OC)c2)cc1F | 161 to 163 °C |
| OCc1cnoc1-c1ccc2c(c1)OCO2 | 92 to 93 °C |
| N#CCc1ccc(-c2nc3ccccc3o2)cc1[N+](=O)[O-] | 203 °C |
| Cc1c(C)n(Cc2ccccc2)c2ncnc(Nc3cccc(Cl)c3)c12 | 132 to 133 °C |
| CN(C)CCc1cccc(N2C(=O)N(c3c(Cl)cccc3Cl)Cc3cnc(Nc4ccccc4)nc32)c1 | 101 to 105 °C |
| CN(CCCCCCO)c1ccc(C=Cc2ccc(S(C)(=O)=O)cc2)cc1 | 113 to 115 °C |
| Nc1ccc(Cn2nc3ccccc3n2)cc1 | 229 to 230 °C |
| N#Cc1cc2cc(O)c(O)cc2s1 | 229 to 230 °C |
| Cc1c(CNCC(C)(C)C)n(C)c2ccc(NC(=O)c3ccc(OC[C@@H]4CCCO4)cc3)cc12 | 165 to 166 °C |
| CNc1ccc(CCl)cc1[N+](=O)[O-] | 126 to 128 °C |
| CN(C)NC(=O)c1c([Si](C)(C)C)ccc(Cl)c1Cl | 144 to 145 °C |

| Structure (SMILES) | melting point |
| --- | --- |
| CCCCc1nc2cc(-c3ccccc3)cc(C(=O)O)c2n1Cc1ccccc1Cl | 236 to 238 °C |
| N#Cc1cccc2c1COc1ccc(OCc3ccc4ccc(Cl)cc4n3)cc1C2SCCC(=O)O (centres undefined) | 193 to 195 °C |
| c1ccc(COc2ccc(-c3cscn3)cc2)cc1 | 109 to 110 °C |
| O=C(N1CCNCC1)N1CCC(c2ccncc2)CC1 | 116 to 117 °C |
| [N-]=[N+]=NC1(O)CC(n2cc(Br)c(=O)[nH]c2=O)OC1CO (centres undefined) | 148 to 149 °C |
| CCOC(=O)CNc1cc(Cl)nc(NCc2ccc(Cl)cc2)n1 | 168 to 170 °C |
| CC(C)(C)OC(=O)NCCCN(CCCCOC(=O)NCNC(=O)CCCCCCNC(=O)OCc1ccccc1)C(=O)OC(C)(C)C | 115 °C |
| CC(c1oc2ccccc2c(=O)c1-c1cccc(F)c1)n1nc(-c2cccc3c2oc2ccccc23)c2c(N)ncnc21 (centres undefined) | 238 to 240 °C |
| CC(C)(C)OC(=O)N1CCN(Cc2ccccc2)C(=S)C1 | 126 to 129 °C |
| Cc1c(Nc2c(C#N)cnc3sc(C(=O)N4CCCC4)cc23)ccc2[nH]ccc12 | 256 °C |
| CC(C)CC(=O)Nc1ccc2oc3c(c2c1)CCC3 | 162 to 163 °C |
| CCCCCCCCCCCCCCc1ccc(O)c(CC)c1 | 45.5 to 46.5 °C |
| Nc1ccc2c(c1)NC(=O)C2 | 194 °C |
| COc1ccccc1COC(=O)c1ncn2c1[C@@H]1CCCN1C(=O)c1c(Cl)cccc1-2 | 178 to 179 °C |
| Cc1cc([N+](=O)[O-])ccc1-c1ccc(-c2ccc([N+](=O)[O-])cc2C)o1 | 242 to 243 °C |
| Cc1cc(Cl)cc2c1OC(C(F)(F)F)C(C(=O)O)=C2 (centres undefined) | 232 to 233 °C |
| NC(=O)CCc1ccc(Oc2ccc3c(c2)S(=O)(=O)N=C2CCCN23)cc1 | 178 to 183 °C |
| O=C(O)c1cn(-c2ccc(F)cc2F)c2nc(Cl)c(F)cc2c1=O | 242 to 244 °C |
| CC(C(=O)O)c1ccc(C(=O)c2ccc(Cl)cc2)n1C (centres undefined) | 139 to 141 °C |
| Cc1cc(Cl)cc(COc2cccc(OCc3ccc4ccccc4n3)c2)c1OCc1nnn[nH]1 | 181 to 184 °C |
| O=c1[nH]ncc2[nH]c(-c3ccc(OC(F)F)c(OC4CCC4)c3)c(-c3ccccc3)c12 | 280 to 284 °C |
| COC(=O)CCC#Cc1cc(Cl)ccc1NS(=O)(=O)c1cccc(C)c1 | 69 °C |
| CCOC(=O)c1ccc(F)c([N+](=O)[O-])c1 | 50 °C |
| CC(=O)NC[C@H]1CN(c2ccc(-n3cc(-c4ccncc4)cn3)c(F)c2)C(=O)O1 | 204 to 205 °C |
| Cc1cc(C)c2ncc(C(=O)O)c(-c3ccccc3Cl)c2c1 | 234 to 235 °C |

| Structure (SMILES) | melting point |
| --- | --- |
| CCCc1nn(C)c2c(=O)n(CCCOc3ccc(SC(C)(C)C(=O)OCC)cc3)c(C)nc12 | 52 to 54 °C |
| CC(=O)NC1C(Oc2ncn(Cc3ccc([N+](=O)[O-])cc3)c2C(N)=O)OC(COC(C)=O)C(OC(C)=O)C1OC(C)=O (centres undefined) | 114 to 117 °C |
| CCn1ncnc1COc1nc2c(cnn2-c2ccccc2)c2ccccc12 | 147 to 148 °C |
| CCCc1nc2c(N)nc3cc(OCCN4CCCC4=O)ccc3c2s1 | 163 to 166 °C |
| O=C(Cn1nnnc1-c1ccccc1)OCCO | 54 to 55 °C |
| COc1cc2c(cc1OC)C(=CN1CCN(C(=O)C3CCCCO3)CC1)C(=O)N2 (centres undefined) | 208 to 210 °C |
| CCN(CC)C(=O)c1ccc2ccccc2c1-c1ccsc1 | 71 to 73 °C |
| CCOCc1cc(N2C(=O)C3=C(CCCC3)C2=O)c(F)cc1Br | 104 to 106 °C |
| CC(C)(CCl)C(O)C(=Cc1ccc(Cl)cc1)n1cncn1 (centres undefined) | 170 °C |
| CN(C)CCCN=C1CC(c2ccc(C(F)(F)F)cc2)Cc2[nH]c3ccc(Cl)cc3c(=O)c21 (centres undefined) | 211 to 213 °C |
| O=S(=O)(c1ccccc1)n1ccc2c(Cl)ncnc21 | 163 to 167 °C |
| ON=C1C2CCN(CC2)C1CN1CCCC1 (centres undefined) | 194 to 195 °C |
| N#Cc1nn(-c2c(Cl)cc(C(F)(F)F)cc2Cl)c(F)c1S(=O)(=O)C(F)(F)F | 95 to 98 °C |
| CCn1cc(C(=O)O)c(=O)c2ccc(C3CCCCC3)cc21 | 222 to 224 °C |
| CC(C)CCNCCOc1ccc2ccccc2c1 | 91 °C |
| COc1cc(OC)cc(C(=O)N2CCc3cc(O)ccc3C2)c1 | 170 to 171 °C |
| Cc1cn2nc(SCc3ccccc3)nc2nc1C | 147 to 149 °C |
| COc1ccc(Nc2cc(-c3ccccc3)nc(N3CCC(O)CC3)n2)cc1Cl | 188 to 191 °C |
| CCc1c(Br)sc2[nH]c(=O)c(=O)[nH]c12 | 295 to 297 °C |
| CCCCCCCCCN(O)C(=O)N(C)C | 39 to 40 °C |
| CCOC(=NC(=O)OC)NC(=O)Nc1cc(C(=O)OC)c(Cl)cc1F | 105 to 107 °C |
| CCOC(=O)c1cnc2nc(C(F)(F)F)ccc2c1O | > 250 °C |
| CC(C)CN1CCC(N(C)S(=O)(=O)c2ccc(Nc3nccc(Nc4ccc(F)cc4)n3)cc2)CC1 | 194 to 195 °C |
| C#Cc1cn(-c2c(Cl)cc(OC(F)(F)F)cc2Cl)nc1C#N | 95.2 to 96 °C |

— a melting point compilation (Tetko et al.; mined from patent text by program, amines drawn as free bases though some values may be those of a salt)
